Experimental data reported in patent US20220372017A1, “HCK DEGRADERS AND USES THEREOF” (DANA-FARBER CANCER INSTITUTE, INC., priority 2019, published 2022).

Assays:
Assay type in all cases: cell-based
FYN = molecular target: T1, FYN (Homo sapiens, UniProt P06241); assay: Proteomics, degradation of target kinases in MOLT4 cells: FYN; conditions: cell line MOLT4 (FIGS. 7A-7B)
T1 construct: proteomics data on the degradation of target kinases in cell line MOLT4; endogenous in cells; host or cells: MOLT4
Description: (§1) FIGS. 7A-7B show proteomics data on the degradation of target kinases in cell line MOLT4 (human T lymphoblast; acute lymphoblastic leukemia) using treatment with exemplary compounds SB1-G-181 and SB1-G-200. FIG. 7A indicates in the bottom left corner the exemplary kinase targets (FYN, SRC, BLK, LCK, CSK, ABL1, ABL2, LIMK1, LATS1) in cell line MOLT4 which were degraded by exemplary compound SB1-G-181. FIG. 7B indicates in the bottom left corner the exemplary kinase targets (FYN, SRC, BLK, LCK, CSK, ABL1, ABL2, LIMK1, LATS1) in cell line MOLT4 which were degraded by exemplary compound SB1-G-200.

SRC = molecular target: T2, SRC (Homo sapiens, UniProt P12931); assay: Proteomics, degradation of target kinases in MOLT4 cells: SRC; conditions: cell line MOLT4 (FIGS. 7A-7B)
T2 construct: proteomics data on the degradation of target kinases in cell line MOLT4; endogenous in cells; host or cells: MOLT4
Description: as §1

BLK = molecular target: T3, BLK (Homo sapiens, UniProt P51451); assay: Proteomics, degradation of target kinases in MOLT4 cells: BLK; conditions: cell line MOLT4 (FIGS. 7A-7B)
T3 construct: proteomics data on the degradation of target kinases in cell line MOLT4; endogenous in cells; host or cells: MOLT4
Description: as §1

LCK = molecular target: T4, LCK (Homo sapiens, UniProt P06239); assay: Proteomics, degradation of target kinases in MOLT4 cells: LCK; conditions: cell line MOLT4 (FIGS. 7A-7B)
T4 construct: proteomics data on the degradation of target kinases in cell line MOLT4; endogenous in cells; host or cells: MOLT4
Description: as §1

CSK = molecular target: T5, CSK (Homo sapiens, UniProt P41240); assay: Proteomics, degradation of target kinases in MOLT4 cells: CSK; conditions: cell line MOLT4 (FIGS. 7A-7B)
T5 construct: proteomics data on the degradation of target kinases in cell line MOLT4; endogenous in cells; host or cells: MOLT4
Description: as §1

ABL1 = molecular target: T6, ABL1 (Homo sapiens, UniProt P00519); assay: Proteomics, degradation of target kinases in MOLT4 cells: ABL1; conditions: cell line MOLT4 (FIGS. 7A-7B)
T6 construct: proteomics data on the degradation of target kinases in cell line MOLT4; endogenous in cells; host or cells: MOLT4
Description: as §1

ABL2 = molecular target: T7, ABL2 (Homo sapiens, UniProt P42684); assay: Proteomics, degradation of target kinases in MOLT4 cells: ABL2; conditions: cell line MOLT4 (FIGS. 7A-7B)
T7 construct: proteomics data on the degradation of target kinases in cell line MOLT4; endogenous in cells; host or cells: MOLT4
Description: as §1

LIMK1 = molecular target: T8, LIMK1 (Homo sapiens, UniProt P53667); assay: Proteomics, degradation of target kinases in MOLT4 cells: LIMK1; conditions: cell line MOLT4 (FIGS. 7A-7B)
T8 construct: proteomics data on the degradation of target kinases in cell line MOLT4; endogenous in cells; host or cells: MOLT4
Description: as §1

LATS1 = molecular target: T9, LATS1 (Homo sapiens, UniProt O95835); assay: Proteomics, degradation of target kinases in MOLT4 cells: LATS1; conditions: cell line MOLT4 (FIGS. 7A-7B)
T9 construct: proteomics data on the degradation of target kinases in cell line MOLT4; endogenous in cells; host or cells: MOLT4
T9 sequence (O95835 1-1130): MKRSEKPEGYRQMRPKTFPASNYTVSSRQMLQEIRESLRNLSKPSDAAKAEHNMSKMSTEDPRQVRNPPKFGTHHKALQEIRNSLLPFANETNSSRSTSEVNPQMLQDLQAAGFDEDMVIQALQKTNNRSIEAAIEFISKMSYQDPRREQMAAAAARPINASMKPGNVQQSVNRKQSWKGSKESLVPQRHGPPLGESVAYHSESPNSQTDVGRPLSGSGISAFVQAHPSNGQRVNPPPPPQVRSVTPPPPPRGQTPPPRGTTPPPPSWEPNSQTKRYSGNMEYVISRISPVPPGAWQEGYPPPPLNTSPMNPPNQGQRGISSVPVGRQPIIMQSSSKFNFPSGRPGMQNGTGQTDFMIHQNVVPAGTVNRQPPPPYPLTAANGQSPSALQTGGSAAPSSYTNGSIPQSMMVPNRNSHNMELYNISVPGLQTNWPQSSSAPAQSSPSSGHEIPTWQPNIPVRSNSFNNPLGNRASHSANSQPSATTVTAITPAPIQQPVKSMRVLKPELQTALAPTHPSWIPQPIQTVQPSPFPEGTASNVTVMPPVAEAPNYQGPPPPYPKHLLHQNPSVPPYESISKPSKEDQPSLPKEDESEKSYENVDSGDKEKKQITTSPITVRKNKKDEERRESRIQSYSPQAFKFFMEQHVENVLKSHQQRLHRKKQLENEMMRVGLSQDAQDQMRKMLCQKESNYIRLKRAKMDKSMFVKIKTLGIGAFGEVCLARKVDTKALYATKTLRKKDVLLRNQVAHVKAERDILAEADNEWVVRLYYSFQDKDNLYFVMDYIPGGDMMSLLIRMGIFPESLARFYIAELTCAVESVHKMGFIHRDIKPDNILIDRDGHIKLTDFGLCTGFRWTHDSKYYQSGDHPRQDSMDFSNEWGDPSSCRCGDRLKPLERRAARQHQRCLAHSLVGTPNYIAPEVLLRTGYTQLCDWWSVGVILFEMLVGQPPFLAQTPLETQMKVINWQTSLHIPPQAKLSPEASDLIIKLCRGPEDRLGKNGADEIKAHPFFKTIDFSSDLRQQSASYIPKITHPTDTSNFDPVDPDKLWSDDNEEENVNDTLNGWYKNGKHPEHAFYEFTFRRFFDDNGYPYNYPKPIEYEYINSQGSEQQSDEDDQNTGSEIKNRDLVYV
Description: as §1

HCK = molecular target: T10, HCK (Homo sapiens, UniProt P08631); assay: Western blot protein degradation assessment, HCK
T10 construct: following treatment of MYD88 mutated BCWM.1 cells; endogenous in cells; host or cells: BCWM.1 WM cells (parental and vector/BTK-WT/BTK-C481S transduced); TMD8 ABC-DLBCL cells (transduced)
Method: (§2) SK-6-1 was used as a degrader control compound.
(§3) SK-6-1 was used as a degrader control compound. […] “ABC-DLBCL” is activated B-cell (ABC) lymphoma, diffuse large B-cell lymphoma (DLBCL).
(§4) Western blots were performed for the detection of protein degradation following the cell treatments with HCK degraders using antibodies for HCK (Cell Signaling), BTK (Cell Signaling) or Phospho-BTK (Tyr223) (Abcam). GAPDH was used for determination of protein loading.

BTK [1] = molecular target: T11, BTK (Homo sapiens, UniProt Q06187); assay: Western blot protein degradation assessment, BTK; conditions: MYD88 mutated BCWM.1 cells, 6 hours, Western blot (FIG. 4)
T11 construct: following treatment of MYD88 mutated BCWM.1 cells; endogenous in cells
Method: as §2, §3, §4

BTK [2] = molecular target: T12, BTK (Homo sapiens, UniProt Q06187, C481S); assay: Western blot protein degradation assessment, BTK; conditions: BTK^C481S mutant transduced BCWM.1 WM cells, 6 hours (FIG. 5)
T12 construct: following treatment of MYD88 mutated BCWM.1 cells; endogenous in cells
Method: as §2, §3, §4

BTK [3] = assay: Western blot protein degradation assessment, BTK; conditions: vector only, BTK^WT or BTK^C481S transduced TMD8 ABC-DLBCL cells, 6 hours (FIG. 6)
Method: as §2, §3, §4

Phospho-BTK (Tyr223) = assay: Western blot, Phospho-BTK (Tyr223); conditions: vector only
Method: as §2, §3, §4

[4] = MYD88 mutated BCWM.1 cells, 6 hours, Western blot (FIG. 4)

T11 sequence (Q06187 2-659): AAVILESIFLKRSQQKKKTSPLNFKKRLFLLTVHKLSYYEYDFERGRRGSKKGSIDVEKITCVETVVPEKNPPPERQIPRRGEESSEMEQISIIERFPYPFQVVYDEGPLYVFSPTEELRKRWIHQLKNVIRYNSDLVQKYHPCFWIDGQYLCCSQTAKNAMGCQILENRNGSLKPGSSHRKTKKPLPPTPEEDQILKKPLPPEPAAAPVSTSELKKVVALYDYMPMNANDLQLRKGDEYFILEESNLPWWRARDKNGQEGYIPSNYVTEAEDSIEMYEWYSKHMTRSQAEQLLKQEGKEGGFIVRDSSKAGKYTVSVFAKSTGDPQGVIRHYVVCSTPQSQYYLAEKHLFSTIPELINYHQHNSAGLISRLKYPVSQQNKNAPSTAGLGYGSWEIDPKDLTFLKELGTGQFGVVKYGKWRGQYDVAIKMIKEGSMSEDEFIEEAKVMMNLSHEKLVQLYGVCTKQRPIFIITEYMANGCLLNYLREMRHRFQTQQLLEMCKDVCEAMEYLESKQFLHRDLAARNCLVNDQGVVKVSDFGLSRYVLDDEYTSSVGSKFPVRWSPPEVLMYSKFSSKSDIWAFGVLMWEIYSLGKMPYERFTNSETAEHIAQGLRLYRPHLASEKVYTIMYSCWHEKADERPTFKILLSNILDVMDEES
T3 sequence (P51451 whole entry): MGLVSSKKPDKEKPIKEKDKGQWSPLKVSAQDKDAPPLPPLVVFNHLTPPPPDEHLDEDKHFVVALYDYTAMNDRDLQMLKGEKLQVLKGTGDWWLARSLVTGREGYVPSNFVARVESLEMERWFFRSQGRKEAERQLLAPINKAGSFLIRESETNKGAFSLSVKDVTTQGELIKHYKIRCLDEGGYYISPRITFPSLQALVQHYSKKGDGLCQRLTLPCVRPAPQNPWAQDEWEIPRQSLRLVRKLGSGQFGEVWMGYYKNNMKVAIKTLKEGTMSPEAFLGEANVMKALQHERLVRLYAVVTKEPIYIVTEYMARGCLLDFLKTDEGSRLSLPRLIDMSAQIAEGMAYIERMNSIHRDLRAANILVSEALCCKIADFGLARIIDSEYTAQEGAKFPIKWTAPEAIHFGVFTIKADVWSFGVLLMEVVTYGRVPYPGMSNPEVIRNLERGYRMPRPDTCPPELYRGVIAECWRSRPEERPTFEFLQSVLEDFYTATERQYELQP
T6 sequence (P00519 whole entry): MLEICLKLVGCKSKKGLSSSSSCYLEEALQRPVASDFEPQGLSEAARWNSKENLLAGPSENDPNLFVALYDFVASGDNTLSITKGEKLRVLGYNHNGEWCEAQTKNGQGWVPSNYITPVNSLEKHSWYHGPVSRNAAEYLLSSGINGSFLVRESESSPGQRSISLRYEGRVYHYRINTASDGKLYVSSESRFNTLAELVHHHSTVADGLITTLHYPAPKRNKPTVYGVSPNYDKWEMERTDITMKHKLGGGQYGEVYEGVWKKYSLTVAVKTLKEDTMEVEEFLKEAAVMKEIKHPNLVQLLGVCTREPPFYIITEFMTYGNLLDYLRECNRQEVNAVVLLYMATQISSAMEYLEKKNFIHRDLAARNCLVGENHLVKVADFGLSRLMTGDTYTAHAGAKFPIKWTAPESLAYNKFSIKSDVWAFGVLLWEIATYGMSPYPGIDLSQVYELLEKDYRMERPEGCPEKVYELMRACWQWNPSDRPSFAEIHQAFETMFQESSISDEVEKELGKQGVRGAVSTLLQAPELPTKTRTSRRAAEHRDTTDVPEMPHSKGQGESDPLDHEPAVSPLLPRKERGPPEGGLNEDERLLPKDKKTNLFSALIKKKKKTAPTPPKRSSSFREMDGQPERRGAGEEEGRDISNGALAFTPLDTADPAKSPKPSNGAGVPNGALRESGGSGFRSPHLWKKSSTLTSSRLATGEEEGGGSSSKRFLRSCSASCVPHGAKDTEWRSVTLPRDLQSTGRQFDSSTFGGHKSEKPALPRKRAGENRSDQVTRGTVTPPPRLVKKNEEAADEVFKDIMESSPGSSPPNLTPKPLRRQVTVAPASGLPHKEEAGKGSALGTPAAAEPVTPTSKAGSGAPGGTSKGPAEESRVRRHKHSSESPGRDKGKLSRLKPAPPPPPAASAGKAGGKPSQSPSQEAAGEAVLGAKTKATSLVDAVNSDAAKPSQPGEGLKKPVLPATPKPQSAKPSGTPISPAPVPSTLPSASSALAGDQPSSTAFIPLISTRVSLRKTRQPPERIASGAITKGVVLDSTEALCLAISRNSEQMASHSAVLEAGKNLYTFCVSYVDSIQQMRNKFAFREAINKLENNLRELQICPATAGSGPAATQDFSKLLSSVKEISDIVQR
T4 sequence (P06239 whole entry): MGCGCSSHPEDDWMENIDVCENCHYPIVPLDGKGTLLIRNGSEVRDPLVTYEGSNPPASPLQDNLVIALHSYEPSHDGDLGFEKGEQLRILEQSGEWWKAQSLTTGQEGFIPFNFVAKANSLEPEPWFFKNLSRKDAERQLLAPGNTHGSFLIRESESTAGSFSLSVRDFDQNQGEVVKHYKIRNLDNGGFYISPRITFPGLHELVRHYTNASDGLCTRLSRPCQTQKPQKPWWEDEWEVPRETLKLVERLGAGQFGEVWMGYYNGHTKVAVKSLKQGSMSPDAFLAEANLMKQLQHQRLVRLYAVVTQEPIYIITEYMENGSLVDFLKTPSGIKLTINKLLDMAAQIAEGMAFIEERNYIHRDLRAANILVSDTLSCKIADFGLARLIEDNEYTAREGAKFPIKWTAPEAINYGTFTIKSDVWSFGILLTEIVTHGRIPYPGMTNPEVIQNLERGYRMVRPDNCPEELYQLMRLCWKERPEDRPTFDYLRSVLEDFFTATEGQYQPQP
T1 sequence (P06241 whole entry): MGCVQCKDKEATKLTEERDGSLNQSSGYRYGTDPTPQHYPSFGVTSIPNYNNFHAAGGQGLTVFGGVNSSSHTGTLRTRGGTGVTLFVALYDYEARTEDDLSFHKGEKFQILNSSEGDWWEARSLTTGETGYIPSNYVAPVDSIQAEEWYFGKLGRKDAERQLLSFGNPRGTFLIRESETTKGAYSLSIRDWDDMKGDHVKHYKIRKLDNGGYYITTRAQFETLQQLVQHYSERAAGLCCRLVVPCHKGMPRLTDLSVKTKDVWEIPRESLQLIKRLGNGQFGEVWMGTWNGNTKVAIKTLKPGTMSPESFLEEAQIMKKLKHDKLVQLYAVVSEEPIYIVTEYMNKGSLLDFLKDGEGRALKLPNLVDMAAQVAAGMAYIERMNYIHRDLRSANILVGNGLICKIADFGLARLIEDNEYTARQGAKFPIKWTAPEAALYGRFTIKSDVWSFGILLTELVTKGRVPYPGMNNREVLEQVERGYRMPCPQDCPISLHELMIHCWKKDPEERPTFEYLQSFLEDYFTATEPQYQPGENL
T2 sequence (P12931 whole entry): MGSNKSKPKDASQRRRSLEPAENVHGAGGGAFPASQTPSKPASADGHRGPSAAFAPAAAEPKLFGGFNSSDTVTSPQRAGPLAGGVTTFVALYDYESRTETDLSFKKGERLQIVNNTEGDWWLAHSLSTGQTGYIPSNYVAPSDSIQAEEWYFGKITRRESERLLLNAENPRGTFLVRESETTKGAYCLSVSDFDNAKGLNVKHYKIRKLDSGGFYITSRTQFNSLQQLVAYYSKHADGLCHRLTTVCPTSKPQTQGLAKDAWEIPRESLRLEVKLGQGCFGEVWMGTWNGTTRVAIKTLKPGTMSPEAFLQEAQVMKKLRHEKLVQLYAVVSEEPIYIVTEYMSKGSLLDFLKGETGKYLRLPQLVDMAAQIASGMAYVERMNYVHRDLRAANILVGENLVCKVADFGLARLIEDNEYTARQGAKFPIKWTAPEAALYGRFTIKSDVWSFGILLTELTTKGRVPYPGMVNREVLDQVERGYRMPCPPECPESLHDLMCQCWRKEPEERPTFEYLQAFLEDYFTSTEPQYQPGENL
T8 sequence (P53667 whole entry): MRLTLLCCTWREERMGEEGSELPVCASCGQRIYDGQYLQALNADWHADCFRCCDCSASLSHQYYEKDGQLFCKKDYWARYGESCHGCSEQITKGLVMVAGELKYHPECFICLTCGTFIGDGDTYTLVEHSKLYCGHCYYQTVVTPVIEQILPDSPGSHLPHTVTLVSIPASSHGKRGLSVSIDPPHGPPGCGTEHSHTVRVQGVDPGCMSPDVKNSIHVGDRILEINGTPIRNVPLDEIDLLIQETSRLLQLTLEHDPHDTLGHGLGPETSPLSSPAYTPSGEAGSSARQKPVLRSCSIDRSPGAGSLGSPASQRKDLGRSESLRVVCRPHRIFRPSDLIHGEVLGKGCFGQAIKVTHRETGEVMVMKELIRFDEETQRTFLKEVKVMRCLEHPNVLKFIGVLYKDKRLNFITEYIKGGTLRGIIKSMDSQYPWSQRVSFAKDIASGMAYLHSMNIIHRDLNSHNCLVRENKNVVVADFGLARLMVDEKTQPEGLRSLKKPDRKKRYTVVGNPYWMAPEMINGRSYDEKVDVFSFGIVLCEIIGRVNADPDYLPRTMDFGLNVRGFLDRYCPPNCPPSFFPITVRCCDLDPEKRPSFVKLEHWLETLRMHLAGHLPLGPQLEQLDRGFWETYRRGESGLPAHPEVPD
T12 sequence (Q06187 2-659 C481S): as the sequence (Q06187 2-659) above, with C480S counted along it

SMILES	degradation of FYN (proteomics) (FYN)	degradation of SRC (proteomics) (SRC)	degradation of BLK (proteomics) (BLK)	degradation of LCK (proteomics) (LCK)	degradation of CSK (proteomics) (CSK)	degradation of ABL1 (proteomics) (ABL1)	degradation of ABL2 (proteomics) (ABL2)	degradation of LIMK1 (proteomics) (LIMK1)	degradation of LATS1 (proteomics) (LATS1)	degradation of HCK (HCK; [4])	degradation of BTK (BTK [1])	degradation of HCK (HCK; vector only, BTK^WT or BTK^C481S transduced BCWM.1 WM cells, 6 hours (FIG. 5))	degradation of HCK (HCK; vector only, BTK^WT or BTK^C481S transduced TMD8 ABC-DLBCL cells, 6 hours (FIG. 6))	degradation of BTK (BTK [2])	degradation of BTK (BTK [3])	BTK phosphorylation at Tyr-223 (Phospho-BTK (Tyr223); BTK^WT or BTK^C481S transduced BCWM.1 WM cells, 6 hours (FIG. 5))	BTK phosphorylation at Tyr-223 (Phospho-BTK (Tyr223); BTK^WT or BTK^C481S transduced TMD8 ABC-DLBCL cells, 6 hours (FIG. 6))
Nc1ncnc2c1c(-c1ccc(Oc3ccccc3)cc1)nn2[C@H]1CC[C@H](N2CCN(CCOCCNC(=O)CNc3cccc4c3C(=O)N(C3CCC(=O)NC3=O)C4=O)CC2)CC1 (stereo partly drawn) [SB1-G-181, N-(2-(2-(4-((1r,4r)-4-(4-amino-3-(4-phenoxyphenyl)-1H-pyrazolo[3,4-d]pyrimidin-1-yl)cyclohexyl)piperazin-1-yl)ethoxy)ethyl)-2-(2-(2,6-dioxopiperidin-3-yl)-1,3-dioxoisoindolin-4-ylamino)acetamide]	degraded	degraded	degraded	degraded	degraded	degraded	degraded	degraded	degraded	–	–	–	–	–	–	–	–
Nc1ncnc2c1c(-c1ccc(Oc3ccccc3)cc1)nn2[C@H]1CC[C@H](N2CCN(CCOCCOCCOCCNC(=O)CNc3cccc4c3C(=O)N(C3CCC(=O)NC3=O)C4=O)CC2)CC1 (stereo partly drawn) [SB1-G-182-P1]	–	–	–	–	–	–	–	–	–	effective degradation	effective degradation	–	–	–	–	–	–
Nc1ncnc2c1c(-c1ccc(Oc3ccccc3)cc1)nn2[C@H]1CC[C@H](N2CCN(CCOCCOCCNC(=O)CNc3cccc4c3C(=O)N(C3CCC(=O)NC3=O)C4=O)CC2)CC1 (stereo partly drawn) [SB1-G-185-P1]	–	–	–	–	–	–	–	–	–	effective degradation	effective degradation	effective degradation	effective degradation	diminished	effective degradation	blocked	blocked

Continued, in another order:

degradation of FYN (proteomics) (FYN)	degradation of SRC (proteomics) (SRC)	degradation of BLK (proteomics) (BLK)	degradation of LCK (proteomics) (LCK)	degradation of CSK (proteomics) (CSK)	degradation of ABL1 (proteomics) (ABL1)	degradation of ABL2 (proteomics) (ABL2)	degradation of LIMK1 (proteomics) (LIMK1)	degradation of LATS1 (proteomics) (LATS1)	degradation of HCK (HCK; [4])	degradation of BTK (BTK [1])	degradation of HCK (HCK; vector only, BTK^WT or BTK^C481S transduced BCWM.1 WM cells, 6 hours (FIG. 5))	degradation of HCK (HCK; vector only, BTK^WT or BTK^C481S transduced TMD8 ABC-DLBCL cells, 6 hours (FIG. 6))	degradation of BTK (BTK [2])	SMILES	degradation of BTK (BTK [3])	BTK phosphorylation at Tyr-223 (Phospho-BTK (Tyr223); BTK^WT or BTK^C481S transduced BCWM.1 WM cells, 6 hours (FIG. 5))	BTK phosphorylation at Tyr-223 (Phospho-BTK (Tyr223); BTK^WT or BTK^C481S transduced TMD8 ABC-DLBCL cells, 6 hours (FIG. 6))
–	–	–	–	–	–	–	–	–	effective degradation	effective degradation	–	–	–	Nc1ncnc2c1c(-c1ccc(Oc3ccccc3)cc1)nn2C1CCC(N2CCN(CCOCCNC(=O)CNc3cccc4c3C(=O)N(C3CCC(=O)NC3=O)C4=O)CC2)CC1 (stereo not drawn) [SB1-G-181-P1]	–	–	–
degraded	degraded	degraded	degraded	degraded	degraded	degraded	degraded	degraded	–	–	–	–	–	Nc1ncnc2c1c(-c1ccc(Oc3ccccc3)cc1)nn2[C@H]1CC[C@H](N2CCN(CCCCCCNC(=O)COc3cccc4c3C(=O)N(C3CCC(=O)NC3=O)C4=O)CC2)CC1 (stereo partly drawn) [SB1-G-200]	–	–	–
